Experimental data taken from patent publication US20210260101A1, “POTENTIATED ANTIBIOTIC COMPOSITIONS AND METHODS OF USE FOR TREATING BACTERIAL INFECTIONS AND BIOFILMS” (priority 2018, published 2021).
“And” between values parts separate entries of the source, which are not always exact repeats. Equal values may be shown once. Read-outs that look alike come from different tables or passages of the source.

Columns and labels:
[1] = tested on: P. aeruginosa ATCC BAA-47; test: Checkerboard assay (Example 5), PA BAA-47; format: cell-based, Pseudomonas aeruginosa
Method: (§1) Cells were grown at 35° C. with shaking. The OD600 (optical density at 600 nm) was monitored and recorded for each sample over 24 hr. Each checkerboard trial was done in triplicate using sterile Greiner CellStar™ flat bottom polystyrene plates, catalog #655180. Each growth curve was done in duplicate.

MRSA USA 300 ATCC 1717 = test: Checkerboard MIC assay against MRSA USA300 (Example 1); format: cell-based, Staphylococcus aureus; settings: MRSA USA300
[2] = tested on: clinical isolates OU15, OU19, and OU22; test: Checkerboard assay, isolates OU15, OU19 and OU22 reported together; format: cell-based, Pseudomonas aeruginosa; settings: Pseudomonas aeruginosa
Method: as §1

E. coli 25922 = test: MIC/potentiation against E. coli 25922; format: cell-based, Escherichia coli; settings: 3×10^5 CFU/mL
[3] = tested on: biofilms of P. aeruginosa BAA-47; test: MBEC assay (Calgary biofilm device), PA BAA-47; format: cell-based, Pseudomonas aeruginosa
Method: A sub-culture of P. aeruginosa BAA-47 was grown from the cryogenic stock on an agar plate overnight at 35° C. The MBEC plate was inoculated with 150 μL of CAMHB/well plus 1 μL of a stock culture made from 1 colony/mL of P. aeruginosa BAA-47 in CAMHB (˜5×10^5 CFU/mL). The MBEC inoculator plate was sealed with Parafilm™ and incubated for 24 hr at 35° C. with 100 rpm shaking to facilitate biofilm formation on the prongs. Following biofilm formation, the lid of the MBEC inoculator was removed and placed in a rinse plate containing 200 μL of sterile PBS for 10 sec. […] Antimicrobial solutions were serial-diluted and added to the 96-well plate, which contained 200 μL of CAMHB per well. After the rinsing step, the preformed biofilm prong lid was immediately transferred into the prepared antimicrobial challenge plate and incubated at 35° C. for 20-24 hr. […] After incubation, the OD600 of the recovery plate was measured using a Tecan Infinite M20 plate reader to determine the MBEC of the antimicrobial compounds tested. […] Likewise, the OD600 for the base of the challenge plate was measured to determine the MICs of the antimicrobial compounds. The fractional inhibitory concentration index (FICI) calculated based on the established equation was used to determine synergy (FICI≤0.5), additivity (0.5<FICI<1), and no synergy (FICI≥1).

P. aeruginosa 27853 = test: Checkerboard assay, P. aeruginosa 27853; format: cell-based, Pseudomonas aeruginosa
Method: (§2) Cells were grown at 37° C. The change in OD600 (optical density at 600 nm) was measured and recorded after 24 hr of treatment. Each checkerboard trial was done in triplicate using sterile Greiner CellStar™ flat bottom polystyrene plates, catalog #655180.
as §1

PA OU15 = test: Checkerboard assay, PA OU15; format: cell-based, Pseudomonas aeruginosa
Method: as §1

[4] = tested on: MRSE 35984 biofilm formation; test: Crystal violet biofilm formation inhibition (MBIC); format: cell-based, Staphylococcus epidermidis
Source text: Additionally, higher concentrations of BPEI corresponded to greater inhibition of biofilm formation.

PA OU19 = test: Checkerboard assay, PA OU19; format: cell-based, Pseudomonas aeruginosa
Method: as §1

[5] = tested on: P. aeruginosa OU1 (PA OU1); test: Checkerboard assay, clinical isolate PA OU1; format: cell-based, Pseudomonas aeruginosa
Method: as §2, §1

PA OU12 = test: Checkerboard assay, PA OU12; format: cell-based, Pseudomonas aeruginosa
Method: as §1

[6] = tested on: P. aeruginosa PA01 ATCC BAA-47; test: MIC/potentiation against P. aeruginosa PA01 (Example 1); format: cell-based, Pseudomonas aeruginosa; settings: higher inoculum, 5 × 10^7 CFU/ml
MRSE ATCC 29887 biofilm = test: MBEC assay (challenge plate MIC, recovery plate MBEC), MRSE 29887; format: cell-based, Staphylococcus epidermidis
Method: A sub-culture of MRSE was grown from the cryogenic stock on an agar plate overnight at 35° C. The MBEC plate was inoculated with 150 μL of TSB/well plus 1 μL of a stock culture made from 1 colony/mL of MRSE in TSB. The MBEC inoculator plate was sealed with Parafilm and incubated for 24 hours at 35° C. with 100 rpm shaking to facilitate biofilm formation on the prongs. Following biofilm formation, the lid of the MBEC inoculator was removed and placed in a rinse plate containing 200 μL of sterile PBS for 10 sec. Biofilm growth check (BGC) was performed by breaking a few prongs off using sterile pliers, submerging them in 1 mL PBS, and sonicating them on high for 30 minutes to dislodge the biofilm. After sonication, the biofilm solution was serial-diluted and spot-plated on agar plates for CFU counting to determine the biofilm density on the prongs.
A challenge plate was made in a new pre-sterilized 96-well plate in a checkerboard-assay pattern to test the synergistic activity of BPEI+antibiotic combinations. […] After incubation, the OD600 (optical density at 600 nm) of the recovery plate was measured using a Tecan Infinite M20 plate reader to determine the MBEC of the antimicrobial compounds tested. […] Likewise, the OD600 for the base of the challenge plate was measured […] to determine the MICs of the antimicrobial compounds.

PA OU22 = test: Checkerboard assay, PA OU22; format: cell-based, Pseudomonas aeruginosa
Method: as §1

CCN1CCN(C(=O)N[C@@H](C(=O)N[C@@H]2C(=O)N3[C@@H]2SC(C)(C)[C@@H]3C(=O)O)c2ccccc2)C(=O)C1=O [piperacillin]
PIP MIC in combination with BPEI600 ([1]; BPEI600 amount in same cell): 1 µg/mL
MIC ([1]; Pseudomonas aeruginosa, PA BAA-47, agent alone): 4 µg/mL
MIC with 4 μg/ml (6.75 μM) 600-Da BPEI (MRSA USA 300 ATCC 1717): 1 µg/mL
MIC (MRSA USA 300 ATCC 1717; Staphylococcus aureus, agent alone, read-out: MIC of antibiotic only): 4 µg/mL
MIC ([2]; read-out: piperacillin MIC with BPEI600 at ¼th of its MIC value): 1 to 4 µg/mL
MIC ([2]; isolates OU15, OU19, OU22, agent alone (data not shown), read-out: MIC): > 256 µg/mL
MIC (E. coli 25922; Escherichia coli, 25922, read-out: piperacillin MIC with 8 μg/mL (13.6 μM) of BPEI600): 0.125 µg/mL
MIC (E. coli 25922; Escherichia coli, 25922, read-out: piperacillin MIC with 32 μg/mL (34 μM) of PEG350-BPEI600): 0.25 µg/mL
MIC (E. coli 25922; Escherichia coli, 25922, alone, read-out: piperacillin MIC): 1 µg/mL
piperacillin MBEC in combination with BPEI600 ([3]; 16 μg/mL of BPEI): 8 µg/mL
MBEC ([3]; P. aeruginosa BAA-47 biofilm, agent alone): 256 µg/mL
PIP MIC in combination with 600 Da BPEI (P. aeruginosa 27853; BPEI amount in same cell): 0.25 µg/mL
PIP MIC in combination with PEG-BPEI (P. aeruginosa 27853; PEG-BPEI amount in same cell): 0.5 µg/mL
MIC (P. aeruginosa 27853; Pseudomonas aeruginosa, PA 27853, agent alone, piperacillin only, no tazobactam): 4 µg/mL
PIP MIC in combination with BPEI600 (PA OU15; BPEI600 amount in same cell): 32 µg/mL
MIC (PA OU15; Pseudomonas aeruginosa, PA OU15, agent alone, read-out: MIC): 128 µg/mL
piperacillin concentration preventing biofilm growth with 8 μg/mL of BPEI [4]: 16 µg/mL
piperacillin concentration preventing biofilm growth with 16 μg/mL of BPEI [4]: 8 µg/mL
Minimum Biofilm Inhibitory Concentration (MBIC) ([4]; agent alone, 24 hours): 64 µg/mL
PIP MIC in combination with BPEI600 (PA OU19; BPEI600 amount in same cell): 1 µg/mL
MIC (PA OU19; Pseudomonas aeruginosa, PA OU19, agent alone, read-out: MIC): > 256 µg/mL
PIP MIC in combination with 600 Da BPEI [5]: 8 µg/mL and 4 µg/mL
PIP MIC in combination with PEG-BPEI ([5]; PEG-BPEI amount in same cell): 4 µg/mL
MIC ([5]; Pseudomonas aeruginosa, PA OU1, agent alone, piperacillin only, no tazobactam): 64 µg/mL
PIP MIC in combination with 600 Da BPEI ([5]; listed as PIP): 4 µg/mL
PIP MIC in combination with BPEI600 (PA OU12; BPEI600 amount in same cell): 8 µg/mL
MIC (PA OU12; Pseudomonas aeruginosa, PA OU12, agent alone): 128 µg/mL
MIC, antibiotic + 0.5 μg/ml (0.85 μM) 600-Da BPEI [6]: 16 µg/mL
MIC, antibiotic + 4 μg/ml (4.25 μM) PEG350BPEI600 [6]: 32 µg/mL
piperacillin concentration eradicating biofilms with 128 μg/mL BPEI (MRSE ATCC 29887 biofilm; MRSE 29887 biofilm): 64 µg/mL
MIC (MRSE ATCC 29887 biofilm; Staphylococcus epidermidis, MRSE 29887, agent alone): 512 µg/mL
PIP MIC in combination with BPEI600 (PA OU22; BPEI600 amount in same cell): 4 µg/mL
MIC (PA OU22; Pseudomonas aeruginosa, PA OU22, agent alone, read-out: MIC): > 256 µg/mL
